This note sets out measurements from PubChem BioAssay AID1794817.

The experiment deals with Synaptic vesicular amine transporter (Homo sapiens) (UniProt Q05940). The experiment is described as follows: SLC18A2 vesicular uptake inhibitors, dose response (AID 1794817). The following applies: HEK-293 SLC18A2 OE, FFN206 uptake fluorescence.

By IC50 is commonly meant the concentration that gives 50% inhibition.

Chain of Synaptic vesicular amine transporter (Homo sapiens) (Q05940 whole entry, looked up): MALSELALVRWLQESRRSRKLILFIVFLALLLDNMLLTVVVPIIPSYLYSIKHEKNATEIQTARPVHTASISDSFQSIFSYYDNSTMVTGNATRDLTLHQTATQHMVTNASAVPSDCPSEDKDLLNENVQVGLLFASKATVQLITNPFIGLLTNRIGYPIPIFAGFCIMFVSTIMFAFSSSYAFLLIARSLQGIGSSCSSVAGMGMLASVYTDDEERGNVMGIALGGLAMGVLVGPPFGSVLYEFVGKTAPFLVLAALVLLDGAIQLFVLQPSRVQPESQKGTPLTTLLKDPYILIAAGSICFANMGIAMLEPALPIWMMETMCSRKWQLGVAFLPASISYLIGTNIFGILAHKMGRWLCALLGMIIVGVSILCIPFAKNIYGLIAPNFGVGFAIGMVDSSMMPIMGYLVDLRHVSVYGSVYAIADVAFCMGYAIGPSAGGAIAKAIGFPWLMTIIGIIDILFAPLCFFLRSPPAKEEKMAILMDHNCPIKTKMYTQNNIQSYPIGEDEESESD

Turning to `COc1cc2c(cc1OC)C1CC(=O)C(CC(C)C)CN1CC2` (configuration not stated), the IC50 was 19.8 nM. On to `CNc1ccc2c(CCN)cc(=O)oc2c1`, for which the 50% inhibitory concentration (IC50) was 3560 nM.
